In patent publication US11773063B1, “Pharmaceutically acceptable salts and compositions thereof” (priority 2022, dated 2023):
Structures can show the parent of a compound that is named as a salt.

Columns and labels:
[1] = Polymorphism screen of hydrochloride and benzoate salts: thermal cycling, evaporation, antisolvent addition, cooling (XRPD); format: physicochemical; settings: solvent per experiment: -01 1,4-Dioxane, -02 1-Propanol, -03 2-Butanol, -05 2-Methyltetrahydrofuran, -06 2-Propanol, -07 Acetone, -08 Acetonitrile, -09 Anisole, -10 Chlorobenzene, -11 Ethanol, -12 Ethyl acetate, -13 Isopropyl acetate, -14 Methanol, -15 Propyl acetate, -16 Methylethyl ketone; for XRPD Result / 3-day Observations: hydrochloride salt, three days; for XRPD Result: solid isolated after thermal cycle between ambient and 40° C., -20 iso-Prop; for 3-day Observations: thermally cycled between ambient and 40° C., -17 Forma; for 3-day Observations / Initial Observations: -04 2-Ethoxyethanol; for Initial Observations: thermal cycle of lyophilised hydrochloride salt (~40 mg), solvent added, -17 Formamide
Procedure: Twenty five of the lyophilised samples were treated with solvent and thermally cycled between ambient and 40° C. with four hours spent under each condition. After three days and solids were isolated by centrifuge filtration and analysed by XRPD.
(§1) Twelve samples of the lyophilised material were treated with a minimal volume (ca 0.5 ml) of warm solvent, syringe filtered through a 0.22 µm filter and added to a clean HPLC vial and allowed to evaporate at RT. The solvents used and XRPD results following evaporation are detailed in the Table below:
as §1, with “micrometre” for “µm”
For antisolvent additions thirteen samples of the lyophilised material were dissolved in a small amount of hot solvent (^˜0.5 ml). […] A large excess of antisolvent was then added, the vials sealed. After storage at RT overnight, and samples where no solid had been produced were first cooled to 4° C. for ˜24 hrs, and again if no solid was produced, they were cooled to −18° C. Any solids were isolated by centrifuge filtration and analysed by XRPD.
For the cooling experiments twelve samples of the lyophilised material were dissolved in a small amount of hot solvent (^˜[…]) and syringe filtered through a 0.22 μm filter into a clean HPLC vial. Samples were allowed to cool to RT, and if no solid was produced to 4° C. and then to −18° C. Solids were isolated by centrifuge filtration and analysed by XRPD.

[2] = Thermo-Gravimetric Analysis (TGA), thermal stability; settings: 10° C./min; for thermal stability up to (TGA): nitrogen
Procedure: Thermo—Gravimetric Analysis (TGA)
TGA thermograms were obtained with a TA Instrument Discovery 550 in Al pans. The heating rate used was 10° C./min linear ramp from 25 to 400° C. with a nitrogen purging at a rate of 60 ml/min. TGA thermograms were analysed using TRIOS software.

[3] = Dynamic Vapor Sorption (DVS), salt screen and scale-up salts; format: physicochemical; settings: 25° C.
Procedure: Dynamic Vapor Sorption (DVS)
DVS analyses were performed on TA Instrument DVS Q5000. Samples were added to a pre-tared metallised quartz crucible and run at 25° C. from 40% RH to 90% RH, down to zero and back to 40%. This cycle was repeated in increments of 10% RH.

[4] = listed as DJP2202-007-01, hydrochloride
[5] = listed as DJP2202-007-14, hydrochloride

| SMILES | XRPD Result [1] | 3-day Observations [1] | Initial Observations [1] | further results |
| --- | --- | --- | --- | --- |
| COc1ccc2[nH]cc(CCN(C)C)c2c1.Cl [DJP2202-007-02] | Pattern 1 | few crystals | no change | – |
| COc1ccc2[nH]cc(CCN(C)C)c2c1.Cl [DJP2202-007-03] | Pattern 1 | few crystals | no change | – |
| COc1ccc2[nH]cc(CCN(C)C)c2c1.Cl [DJP2202-007-04] | – | clear solution | dissolved | – |
| COc1ccc2[nH]cc(CCN(C)C)c2c1.Cl [DJP2202-007-05] | Pattern 1 | few crystals | no change | – |
| COc1ccc2[nH]cc(CCN(C)C)c2c1.Cl [DJP2202-007-06] | Pattern 1 | few crystals | no change | – |
| COc1ccc2[nH]cc(CCN(C)C)c2c1.Cl [DJP2202-007-07] | Pattern 1 | few crystals | no change | – |
| COc1ccc2[nH]cc(CCN(C)C)c2c1.Cl [DJP2202-007-08] | Pattern 1 | – | no change | – |
| COc1ccc2[nH]cc(CCN(C)C)c2c1.Cl [DJP2202-007-09] | Pattern 1 | – | no change | – |
| COc1ccc2[nH]cc(CCN(C)C)c2c1.Cl [DJP2202-007-10] | Pattern 1 | white solid | no change | – |
| COc1ccc2[nH]cc(CCN(C)C)c2c1.Cl [DJP2202-007-11] | Pattern 1 | white solid | no change | – |
| COc1ccc2[nH]cc(CCN(C)C)c2c1.Cl [DJP2202-007-12] | Pattern 1 | white solid | no change | – |
| COc1ccc2[nH]cc(CCN(C)C)c2c1.Cl [DJP2202-007-13] | Pattern 1 | white solid | no change | – |
| COc1ccc2[nH]cc(CCN(C)C)c2c1.Cl [DJP2202-007-15] | Pattern 1 | – | no change | – |
| COc1ccc2[nH]cc(CCN(C)C)c2c1.Cl [DJP2202-007-16] | Pattern 2 | white crystals | no change | – |
| COc1ccc2[nH]cc(CCN(C)C)c2c1.Cl [DJP2202-007-17] | – | few crystals | dissolved | – |
| COc1ccc2[nH]cc(CCN(C)C)c2c1.Cl [DJP2202-007-18] | – | clear solution | dissolved | – |

| SMILES | XRPD Result [1] | 3-day Observations [1] | Initial Observations [1] | further results |
| --- | --- | --- | --- | --- |
| COc1ccc2[nH]cc(CCN(C)C)c2c1.Cl [DJP2202-007-19] | – | clear solution | no change | – |
| COc1ccc2[nH]cc(CCN(C)C)c2c1.Cl [DJP2202-007-20] | Pattern 1 | few crystals | no change | – |
| COc1ccc2[nH]cc(CCN(C)C)c2c1.Cl [DJP2202-007-21] | Pattern 1 | few crystals | no change | – |
| COc1ccc2[nH]cc(CCN(C)C)c2c1.Cl [DJP2202-007-22] | Pattern 1 | few crystals | no change | – |
| COc1ccc2[nH]cc(CCN(C)C)c2c1.Cl [DJP2202-007-23] | – | clear solution | dissolved | – |
| COc1ccc2[nH]cc(CCN(C)C)c2c1.Cl [DJP2202-007-24] | – | clear solution | dissolved | – |
| COc1ccc2[nH]cc(CCN(C)C)c2c1.Cl [DJP2202-007-25] | – | clear solution | dissolved | – |
| COc1ccc2[nH]cc(CCN(C)C)c2c1.Cl [Hydrochloride pattern 2, 5-MeO-DMT hydrochloride] | – | – | – | start of decomposition / complete mass loss (TGA) ([2]; hydrochloride): around 256 °C; XRPD Result [1, 4]: Pattern 2; 3-day Observations [1, 4]: solid mass; Initial Observations [1, 4]: no change |
| COc1ccc2[nH]cc(CCN(C)C)c2c1.Cl [Hydrochloride pattern 3, 5-MeO-DMT hydrochloride] | – | – | – | start of decomposition / complete mass loss (TGA) ([2]; hydrochloride): around 260 °C; XRPD Result [1, 5]: Pattern 3; 3-day Observations [1, 5]: clear solution; Initial Observations [1, 5]: dissolved |
| COc1ccc2[nH]cc(CCN(C)C)c2c1 [Ketoglutarate salt, 5-MeO-DMT ketoglutarate] | – | – | – | water uptake at 40% RH ([3]; first sorption isotherm): 0.13 % w/w; deliquescence during DVS ([3]; high RH): deliquesce at high RH |
| COc1ccc2[nH]cc(CCN(C)C)c2c1 [Saccharinate salt, 5-MeO-DMT saccharinate] | – | – | – | thermal stability up to (TGA) [2]: 200 °C |
| COc1ccc2[nH]cc(CCN(C)C)c2c1.O=C(O)c1ccccc1 [benzoate salt pattern 2, 5-MeO-DMT benzoate] | – | – | – | thermal stability up to (TGA) [2]: ~170 °C |
| COc1ccc2[nH]cc(CCN(C)C)c2c1.O=C(O)c1ccccc1 [benzoate salt pattern 3, 5-MeO-DMT benzoate] | – | – | – | start of decomposition / complete mass loss (TGA) [2]: approximately 190 °C |
| COc1ccc2[nH]cc(CCN(C)C)c2c1.O=C(O)c1ccccc1 [benzoate salt pattern 4, 5-MeO-DMT benzoate] | – | – | – | start of decomposition / complete mass loss (TGA) [2]: approximately 190 °C; thermal stability up to (TGA) [2]: approximately 190 °C |
| COc1ccc2[nH]cc(CCN(C)C)c2c1 [free base, 5-methoxy-N,N-dimethyltryptamine] | – | – | – | thermal stability up to (TGA) [2]: 150 °C |
